Measured values published in ChEMBL document CHEMBL1201862, “PubChem BioAssay data set” (2004).
Structures can show the parent of a compound that is named as a salt. The source made the active and inactive calls.

Columns and labels:
[1] = target: G-protein coupled receptor 35 (Homo sapiens, UniProt Q9HC97); test: GPR35 antagonists blocking zaprinast-driven arrestin recruitment, primary screen, imaging, U2OS, beta-arrestin-GFP, zaprinast agonist (AID 2058); assay type: functional;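 further: antagonist potency meaning inhibition of agonist-induced arrestin redistribution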
NADPH oxidase 1 = target: T1, NADPH oxidase 1 (Homo sapiens, UniProt Q9Y5S8); assay type: functional, cell-based;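 further: Cell-based assay with luminescence read-out, IC50 derived from inhibitor dose-response curves; intracellular ROS from endogenous NOX1 in intact HT29 colon cancer cells; potency of inhibitors that lower the ROS luminescence signal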
T1 sequence (Q9Y5S8 whole entry): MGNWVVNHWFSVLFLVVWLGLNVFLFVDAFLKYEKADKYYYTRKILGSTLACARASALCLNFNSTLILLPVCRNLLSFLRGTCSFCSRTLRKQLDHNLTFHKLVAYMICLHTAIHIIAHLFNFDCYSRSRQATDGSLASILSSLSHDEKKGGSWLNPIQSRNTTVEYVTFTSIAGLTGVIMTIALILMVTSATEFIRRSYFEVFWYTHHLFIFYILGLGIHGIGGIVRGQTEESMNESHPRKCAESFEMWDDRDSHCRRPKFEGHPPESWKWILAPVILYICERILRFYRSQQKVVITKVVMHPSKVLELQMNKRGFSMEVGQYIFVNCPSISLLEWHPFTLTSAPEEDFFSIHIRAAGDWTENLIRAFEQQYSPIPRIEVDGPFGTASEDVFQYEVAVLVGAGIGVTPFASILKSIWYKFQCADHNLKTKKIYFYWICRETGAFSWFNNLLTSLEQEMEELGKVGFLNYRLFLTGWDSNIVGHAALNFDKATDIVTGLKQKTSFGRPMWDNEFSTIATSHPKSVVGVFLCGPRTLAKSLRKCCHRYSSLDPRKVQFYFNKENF

[2] = target: FAD-linked sulfhydryl oxidase ALR (Homo sapiens, UniProt P55789); test: inhibitors of human ALR sulfhydryl oxidase, dose response, biochemical, H2O2 detection, luminescence, cherry-pick (AID 493248)
Estrogen receptor = target: T2, Estrogen receptor (Homo sapiens, UniProt P03372);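 further: potency for inhibiting coactivator peptide recruitment to the receptor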
T2 sequence (P03372 whole entry): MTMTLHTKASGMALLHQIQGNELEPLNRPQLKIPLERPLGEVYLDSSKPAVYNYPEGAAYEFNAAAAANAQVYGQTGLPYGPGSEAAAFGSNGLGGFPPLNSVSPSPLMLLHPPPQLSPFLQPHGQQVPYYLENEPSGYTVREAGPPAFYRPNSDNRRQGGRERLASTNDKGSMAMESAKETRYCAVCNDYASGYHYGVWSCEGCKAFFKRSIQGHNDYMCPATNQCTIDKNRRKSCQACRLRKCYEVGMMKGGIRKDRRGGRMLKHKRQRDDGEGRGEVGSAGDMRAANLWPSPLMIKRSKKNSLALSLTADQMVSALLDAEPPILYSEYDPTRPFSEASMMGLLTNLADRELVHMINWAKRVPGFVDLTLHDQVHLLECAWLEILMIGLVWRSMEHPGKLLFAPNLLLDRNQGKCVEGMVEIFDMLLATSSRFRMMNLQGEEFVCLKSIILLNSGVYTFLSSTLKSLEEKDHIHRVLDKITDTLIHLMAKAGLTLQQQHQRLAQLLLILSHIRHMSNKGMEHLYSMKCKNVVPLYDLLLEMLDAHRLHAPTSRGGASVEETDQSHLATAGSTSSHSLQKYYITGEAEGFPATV

[3] = HEp-2 cell cytotoxicity, dose response, cytotoxicity control for RSV inhibitor project, HTS (AID 2410); assay type: functional; settings: human respiratory syncytial virus
[4] = target: T3, Aryl hydrocarbon receptor (Homo sapiens, UniProt P35869); test: Luminescence-based cell-based high throughput dose response assay for activators of the Aryl Hydrocarbon Receptor (AHR). [Related pubchem assays: 2796 (Primary screen (AHR activators in singlicate)), 2845 (Confirmation screen (AHR activators in triplicate)), 434939 (Counterscreen (PXR activators in triplicate)), 2804 (Summary (AHR activators))]; assay type: ADME
T3 sequence (P35869 whole entry): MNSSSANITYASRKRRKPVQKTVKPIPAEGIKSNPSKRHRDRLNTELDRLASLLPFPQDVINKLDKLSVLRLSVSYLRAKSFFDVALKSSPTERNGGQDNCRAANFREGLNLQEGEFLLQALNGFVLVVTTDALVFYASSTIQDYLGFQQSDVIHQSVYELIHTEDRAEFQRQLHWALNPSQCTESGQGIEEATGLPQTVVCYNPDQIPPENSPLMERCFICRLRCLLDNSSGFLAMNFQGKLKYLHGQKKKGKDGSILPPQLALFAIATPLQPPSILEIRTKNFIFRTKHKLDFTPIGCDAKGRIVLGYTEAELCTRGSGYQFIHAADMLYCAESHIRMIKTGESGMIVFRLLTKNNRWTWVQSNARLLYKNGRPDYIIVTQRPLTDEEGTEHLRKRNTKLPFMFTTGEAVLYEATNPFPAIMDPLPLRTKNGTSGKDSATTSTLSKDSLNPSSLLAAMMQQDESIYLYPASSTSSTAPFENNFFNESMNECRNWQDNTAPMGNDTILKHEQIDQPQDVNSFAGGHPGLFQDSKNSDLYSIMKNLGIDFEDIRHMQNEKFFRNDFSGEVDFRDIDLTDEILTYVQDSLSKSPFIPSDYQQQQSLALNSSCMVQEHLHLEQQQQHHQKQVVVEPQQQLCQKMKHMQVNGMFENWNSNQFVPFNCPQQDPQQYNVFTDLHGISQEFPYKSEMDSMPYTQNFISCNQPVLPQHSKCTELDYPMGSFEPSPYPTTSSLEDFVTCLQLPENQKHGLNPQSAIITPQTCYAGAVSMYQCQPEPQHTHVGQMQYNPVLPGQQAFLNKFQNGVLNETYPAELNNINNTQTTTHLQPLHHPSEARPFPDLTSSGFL

[5] = HeLa cell cytotoxicity, dose response, cytotoxicity control for MgcRacGAP inhibitor project (AID 624300); assay type: functional
[6] = target: T4, Rac GTPase-activating protein 1 (Homo sapiens, UniProt Q9H0H5); test: MgcRacGAP GTPase-activating activity inhibitors, confirmation, biochemical, ADP Hunter fluorescence, primary and confirmatory (AID 624330); assay type: functional
T4 sequence (Q9H0H5 whole entry): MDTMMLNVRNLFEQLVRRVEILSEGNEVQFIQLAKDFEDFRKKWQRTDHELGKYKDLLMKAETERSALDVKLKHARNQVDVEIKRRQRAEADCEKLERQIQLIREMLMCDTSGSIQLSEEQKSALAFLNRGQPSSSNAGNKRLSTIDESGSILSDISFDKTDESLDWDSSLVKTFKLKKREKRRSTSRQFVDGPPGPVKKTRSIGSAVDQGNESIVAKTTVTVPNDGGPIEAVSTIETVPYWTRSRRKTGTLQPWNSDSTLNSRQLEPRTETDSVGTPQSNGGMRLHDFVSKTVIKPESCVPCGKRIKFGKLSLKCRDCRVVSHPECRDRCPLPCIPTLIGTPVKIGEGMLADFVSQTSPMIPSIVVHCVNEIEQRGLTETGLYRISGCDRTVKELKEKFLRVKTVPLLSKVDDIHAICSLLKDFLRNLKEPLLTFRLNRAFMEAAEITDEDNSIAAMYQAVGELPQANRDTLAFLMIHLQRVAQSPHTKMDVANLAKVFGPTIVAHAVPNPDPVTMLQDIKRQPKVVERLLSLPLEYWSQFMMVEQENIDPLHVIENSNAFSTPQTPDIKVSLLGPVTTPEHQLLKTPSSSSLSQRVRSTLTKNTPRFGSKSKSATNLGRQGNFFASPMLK

[7] = THP-1 cell cytotoxicity, dose response, cytotoxicity control for Vif-APOBEC3G degradation inhibitor project, THP-1 cells (AID 1117359); assay type: functional; settings: Human immunodeficiency virus 1, THP-1
[8] = target: DNA dC->dU-editing enzyme APOBEC-3A (Homo sapiens, UniProt P31941); test: Dose Response confirmation of small molecule APOBEC3A DNA Deaminase Inhibitors via a fluorescence-based single-stranded DNA deaminase assay. [Related pubchem assays (depositor defined):AID493011, AID493024]; assay type: functional
[9] = target: DNA dC->dU-editing enzyme APOBEC-3G (Homo sapiens, UniProt Q9HC16); assay type: functional;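 further: Dose-response counterscreen measuring inhibition of APOBEC3G DNA deaminase activity, run while confirming APOBEC3A inhibitors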
[10] = target: G-protein coupled receptor 55 (Homo sapiens, UniProt Q9Y2T6); test: GPR55 agonists via beta-arrestin recruitment, primary screen, imaging, U2OS cells, beta-arrestin-GFP redistribution (AID 1961); assay type: functional
[11] = Luminescence Cell-Based Dose Confirmation HTS to Identify Activators of 5'UTR Stem-Loop Driven Alpha-Synuclein mRNA Translation in H4 Neuroglioblastoma Cells. [Related pubchem assays: 1829 (Project Summary), 1814 (Primary HTS)]; assay type: functional
[12] = Luminescence Cell-Based Dose Response HTS to Identify Activators of Luciferase Translation or Activity in H4 […] Cells. [Related pubchem assays: 1829 (Project Summary), 1814 (Primary HTS)]; assay type: functional
H4 = test: Luminescence Cell-Based Dose Response HTS to Identify Activators of 5'UTR Stem-Loop Driven Prion Protein mRNA Translation in H4 Neuroglioblastoma Cells. [Related pubchem assays: 1829 (Project Summary), 1814 (Primary HTS)]; assay type: functional; settings: Homo sapiens
[13] = target: T5, Short transient receptor potential channel 4 (Mus musculus, UniProt Q9QUQ5); test: mouse TRPC4 channel activators, dose response, cell-based, HEK293 TRPC4/mu-opioid, Fluo-4 calcium (AID 434937); assay type: functional
T5 sequence (Q9QUQ5 whole entry): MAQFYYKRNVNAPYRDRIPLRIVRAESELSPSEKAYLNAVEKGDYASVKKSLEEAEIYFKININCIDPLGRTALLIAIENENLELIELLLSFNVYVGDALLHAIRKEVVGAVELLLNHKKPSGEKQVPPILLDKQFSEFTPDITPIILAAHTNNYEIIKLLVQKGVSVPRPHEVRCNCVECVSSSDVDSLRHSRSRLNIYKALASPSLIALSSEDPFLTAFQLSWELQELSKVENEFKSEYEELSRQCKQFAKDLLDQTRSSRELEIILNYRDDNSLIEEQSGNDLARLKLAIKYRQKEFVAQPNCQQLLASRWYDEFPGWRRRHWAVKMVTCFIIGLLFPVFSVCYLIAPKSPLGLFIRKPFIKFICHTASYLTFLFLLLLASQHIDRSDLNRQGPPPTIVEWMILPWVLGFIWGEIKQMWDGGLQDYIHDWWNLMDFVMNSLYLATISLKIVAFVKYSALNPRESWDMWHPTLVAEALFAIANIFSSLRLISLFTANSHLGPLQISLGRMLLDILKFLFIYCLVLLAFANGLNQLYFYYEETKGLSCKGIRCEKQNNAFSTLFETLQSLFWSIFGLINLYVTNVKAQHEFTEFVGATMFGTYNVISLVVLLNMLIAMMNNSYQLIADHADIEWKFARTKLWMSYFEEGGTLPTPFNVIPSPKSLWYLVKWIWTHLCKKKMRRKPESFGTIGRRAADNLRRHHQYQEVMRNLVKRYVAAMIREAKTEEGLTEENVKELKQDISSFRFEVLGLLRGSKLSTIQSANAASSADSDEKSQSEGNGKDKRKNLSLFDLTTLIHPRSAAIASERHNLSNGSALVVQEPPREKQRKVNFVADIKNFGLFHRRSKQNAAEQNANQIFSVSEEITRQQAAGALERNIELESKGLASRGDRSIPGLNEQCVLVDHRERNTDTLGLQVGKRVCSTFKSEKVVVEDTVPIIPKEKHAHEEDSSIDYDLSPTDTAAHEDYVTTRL

[14] = P. falciparum 3D7-ScDHODH growth inhibitors, dose response, SYBR Green, dry powder samples (AID 1159570); assay type: functional, cell-based;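 further: parasite growth measured after 72 hours of compound exposure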
[15] = HepG2 cell cytotoxicity, dose response, cytotoxicity control, plate reader, dry powder samples (AID 1159569); assay type: functional, cell-based;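 further: inhibitor potency with signal falling toward the positive control level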
[16] = P. falciparum Dd2 growth inhibitors, dose response, SYBR Green, cherry-picked samples (AID 1159567); assay type: functional, cell-based
[17] = P. falciparum Dd2 growth inhibitors, dose response, SYBR Green, dry powder samples (AID 1159566); assay type: functional, cell-based;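 further: potency for growth inhibition with lower SYBR green DNA signal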
[18] = HepG2 cell cytotoxicity, dose response, cytotoxicity control, cherry-picked samples (AID 1159577); assay type: functional, cell-based
[19] = P. falciparum ATP4 D1247Y mutant growth inhibitors, dose response, NITD609-resistant line, SYBR Green, dry powder (AID 1159571); assay type: functional, cell-based;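 further: parasites synchronized at ring stage by sorbitol before testing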
cells [20] = assay type: functional, cell-based
cells [21] = assay type: functional, cell-based; remark: listed apart in the source

Chain of G-protein coupled receptor 35 (Q9HC97 whole entry): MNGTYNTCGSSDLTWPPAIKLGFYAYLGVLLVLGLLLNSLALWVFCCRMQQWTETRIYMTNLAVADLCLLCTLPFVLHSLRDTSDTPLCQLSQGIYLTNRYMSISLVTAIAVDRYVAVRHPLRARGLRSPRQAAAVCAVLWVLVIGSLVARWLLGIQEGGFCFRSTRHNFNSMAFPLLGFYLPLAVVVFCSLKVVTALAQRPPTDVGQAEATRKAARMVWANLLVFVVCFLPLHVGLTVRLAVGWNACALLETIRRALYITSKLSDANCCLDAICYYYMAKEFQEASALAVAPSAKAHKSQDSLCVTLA
Chain of FAD-linked sulfhydryl oxidase ALR (P55789 whole entry): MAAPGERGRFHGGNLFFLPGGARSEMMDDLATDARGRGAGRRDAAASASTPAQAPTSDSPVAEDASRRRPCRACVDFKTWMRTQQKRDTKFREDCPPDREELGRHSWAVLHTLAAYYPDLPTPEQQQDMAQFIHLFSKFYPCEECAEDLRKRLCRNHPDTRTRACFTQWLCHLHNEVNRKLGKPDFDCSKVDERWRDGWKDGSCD
Chain of DNA dC->dU-editing enzyme APOBEC-3A (P31941 whole entry): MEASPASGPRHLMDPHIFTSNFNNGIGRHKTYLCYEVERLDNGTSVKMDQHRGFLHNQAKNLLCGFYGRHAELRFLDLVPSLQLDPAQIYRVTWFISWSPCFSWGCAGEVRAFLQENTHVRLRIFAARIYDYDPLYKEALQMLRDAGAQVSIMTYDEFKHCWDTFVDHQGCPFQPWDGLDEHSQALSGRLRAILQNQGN
Chain of DNA dC->dU-editing enzyme APOBEC-3G (Q9HC16 whole entry): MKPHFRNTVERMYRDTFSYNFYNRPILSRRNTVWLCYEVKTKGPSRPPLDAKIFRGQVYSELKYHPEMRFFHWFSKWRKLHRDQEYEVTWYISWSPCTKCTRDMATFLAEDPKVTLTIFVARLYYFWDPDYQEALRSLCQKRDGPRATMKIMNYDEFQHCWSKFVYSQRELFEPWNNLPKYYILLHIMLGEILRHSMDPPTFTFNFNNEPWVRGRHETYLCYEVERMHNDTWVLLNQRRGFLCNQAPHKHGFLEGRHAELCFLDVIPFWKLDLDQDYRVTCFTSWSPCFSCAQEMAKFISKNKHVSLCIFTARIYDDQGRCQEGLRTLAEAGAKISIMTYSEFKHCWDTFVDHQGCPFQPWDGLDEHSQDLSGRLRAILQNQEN
Chain of G-protein coupled receptor 55 (Q9Y2T6 whole entry): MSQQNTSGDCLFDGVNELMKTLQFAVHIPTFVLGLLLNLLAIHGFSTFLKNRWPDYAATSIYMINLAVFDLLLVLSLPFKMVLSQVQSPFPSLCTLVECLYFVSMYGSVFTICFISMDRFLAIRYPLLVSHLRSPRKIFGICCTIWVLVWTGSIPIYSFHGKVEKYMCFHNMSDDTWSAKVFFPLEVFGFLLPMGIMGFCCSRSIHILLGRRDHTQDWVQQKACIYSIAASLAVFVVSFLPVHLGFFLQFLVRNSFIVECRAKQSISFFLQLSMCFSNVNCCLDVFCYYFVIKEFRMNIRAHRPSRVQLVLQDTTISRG

## O=C(Nc1nc2ccccc2s1)c1ccc(N2CCCCC2)c([N+](=O)[O-])c1
[1]
  IC50: 1.12 µM (active)

## CN(C)CCCN1c2ccccc2Sc2ccccc21 [PROMAZINE HYDROCHLORIDE]
NADPH oxidase 1
  IC50: > 17 µM (not active)
[2]
  AC50: 1.28 µM (active)

## O=S(=O)(/N=C(\Sc1ccc(Cl)cc1)c1ccccc1)c1ccccc1
Estrogen receptor
  IC50: > 50 µM (not active)

## COc1ccc(C2CC(c3c(O)nc4ccc(Cl)cc4c3-c3ccccc3)=NN2S(C)(=O)=O)cc1OC (stereo unspecified)
Estrogen receptor
  IC50: 12.4 µM (active)

## COc1ccc(/C=N/Nc2nc3ccccc3[nH]2)cc1OC
[3]
  CC50: 20.8 µM (active)
[4]
  EC50: 3.46 µM (active)
[2]
  AC50: 0.285 µM (active)
[5]
  CC50: 100 µM (active)
[6]
  IC50: 74 µM (active)

## NC(=O)c1ccccc1NC(=O)/C=C/c1ccc(Cl)cc1
[7]
  CC50: > 40 µM (active)

## O=C(NCCC1CCCCN1S(=O)(=O)c1ccc(F)cc1)C(=O)NCc1ccccn1 (stereo unspecified)
[7]
  CC50: > 40 µM (active)

## C#CCn1cc(/C=N/NC(=O)COc2cccc3cccnc23)c2ccccc21
[4]
  EC50: > 0.377 µM (active)
[8]
  IC50: > 100 µM (inactive)
[9]
  IC50: > 100 µM (inactive)

## Cc1ccccc1OCCC(=O)Nc1cc(S(=O)(=O)N2CCOCC2)ccc1OC(C)C
[10]
  EC50: 4.27 µM (active)

## CN(C)c1ccc(-c2sc(Nc3ccccc3)n[n+]2-c2ccc(F)cc2)cc1
[1]
  IC50: 1.33 µM (active)
[11]
  EC50: > 120 µM (not active)
[12]
  EC50: 17.8 µM (active)
H4
  EC50: > 120 µM (not active)
[13]
  EC50: 10.6 µM (active)

## C[C@@H]1CN([C@H](C)CO)C(=O)c2cc(C#Cc3ccccc3)cnc2O[C@H]1CN(C)C(=O)CCN1CCCCC1
[14]
  AC50: 2.34 µM (active)
[15]
  AC50: 22.9 µM (active)
[16]
  AC50: 2.23 µM (active)
[17]
  AC50: 1.49 µM (active)
[18]
  AC50: 35.6 µM (active)
[19]
  AC50: 1.79 µM (active)

## Fc1ccc2c(c1)Sc1ccccc1N2
NADPH oxidase 1
  IC50: 0.24 µM (active)

## COc1cc2ccccc2cc1C(=O)Nc1ccc(C)cc1
Cells [20]
  EC50: > 350 µM (not active)
Cells [21]
  EC50: 29.2 µM (active)
[4]
  EC50: 0.394 µM (active)
